Experimental data from US8440718B2, “Modulation of inflammation related to columnar epithelia” (The Brigham and Women's Hospital, Inc., priority 1991, dated 2013).

System: T84 intestinal epithelial cells
Assay: fMLP-induced PMN migration after LXA4 exposure of T84 epithelial monolayers
Type: cell-based, human
Description: Lipoxins Synthetic LXA4, LXB4, and 11-trans-LXA4 were obtained from Cascade Biochem Ltd. (Berkshire, United Kingdom). Concentrations were determined from extinction coefficients as described in Sheppard K-A., et al. (1992). Biochimica et Biophysica Acta 1133: 223-234. All eicosanoid stock solutions were stored at −70° C. in […] (American Scientific Products). Eicosanoids were diluted in modified HBSS to a concentration of 1 μM prior to all experiments. PMN or T84 monolayers were exposed to lipoxins at indicated concentrations and allowed to incubate at 37° C. for the indicated period of time. Vehicle controls consisted of dilutions of the solvent (ethanol) equivalent to the highest concentration of lipoxin used in any given experiment (0.01%). […]
Migration was quantitated by assaying for the PMN azurophilic granule marker myeloperoxidase (MPO) as described previously (Parkos C. A., et al. (1991). J. Clin. Invest 88: 1605-1612). Following each migration assay, non-adherent PMN were extensively washed from the surface of the monolayer and PMN cell equivalents (PMN CE), estimated from a standard curve, were assessed as the number of PMN's associated with the monolayer, the number which had completely traversed the monolayer (ie. across the monolayer into the reservoir bath), as well as the total number of transmigrating PMN (the sum of monolayer and reservoir-associated PMN). […]

In the case of CCCCC[C@H](O)/C=C/C=C\C=C\C=C\[C@@H](O)[C@@H](O)CCCC(=O)O (relative stereo) [LXA4, (5S, 6R, 15S)-trihydroxy-7,9,13-trans-11-cis-eicosatetraenoic acid], the “total number of transmigrating PMN” value (T84 monolayers incubated with 10 nM LXA4 15 min 37°C, LXA4 not removed, untreated PMN, 1 μM fMLP) is reported as 15.7±1.8 ×10^4 PMN CE/ml and the “total number of transmigrating PMN” value (T84 monolayers incubated with 10 nM LXA4 15 min, LXA4 removed by washing thrice with HBSS before PMN) is reported as 14.3±1.1 ×10^4 PMN CE/ml.
